Assay results as given in ChEMBL document CHEMBL3991601, “The target landscape of clinical kinase drugs” (Science, 2017).
Active and inactive are the calls of the source.

How the values were obtained:
[1] = biological target: Cyclin-dependent kinase 6 (Homo sapiens, UniProt Q00534)
[2] = biological target: T1, Long-chain-fatty-acid--CoA ligase 5 (Homo sapiens, UniProt Q9ULC5)
T1 sequence (Q9ULC5 whole entry): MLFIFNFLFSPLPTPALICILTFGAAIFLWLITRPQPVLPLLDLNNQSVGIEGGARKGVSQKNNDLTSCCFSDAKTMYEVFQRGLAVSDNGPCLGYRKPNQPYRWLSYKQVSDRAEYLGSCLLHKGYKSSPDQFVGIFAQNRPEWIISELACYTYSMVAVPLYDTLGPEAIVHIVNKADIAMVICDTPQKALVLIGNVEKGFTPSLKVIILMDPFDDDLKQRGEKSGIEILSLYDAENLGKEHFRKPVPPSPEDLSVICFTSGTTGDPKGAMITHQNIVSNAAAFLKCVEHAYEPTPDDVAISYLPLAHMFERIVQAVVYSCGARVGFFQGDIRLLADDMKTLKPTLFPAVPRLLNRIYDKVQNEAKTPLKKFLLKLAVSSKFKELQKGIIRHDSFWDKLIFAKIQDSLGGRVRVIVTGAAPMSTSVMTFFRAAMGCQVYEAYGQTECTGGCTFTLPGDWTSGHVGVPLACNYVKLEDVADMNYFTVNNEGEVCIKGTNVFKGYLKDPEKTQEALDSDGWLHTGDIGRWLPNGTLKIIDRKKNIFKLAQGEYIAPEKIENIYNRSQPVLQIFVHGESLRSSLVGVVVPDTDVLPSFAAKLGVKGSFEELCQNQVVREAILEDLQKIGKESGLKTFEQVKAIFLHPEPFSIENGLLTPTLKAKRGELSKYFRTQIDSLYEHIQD

dCTP pyrophosphatase 1 = biological target: T2, dCTP pyrophosphatase 1 (Homo sapiens, UniProt Q9H773)
T2 sequence (Q9H773 whole entry): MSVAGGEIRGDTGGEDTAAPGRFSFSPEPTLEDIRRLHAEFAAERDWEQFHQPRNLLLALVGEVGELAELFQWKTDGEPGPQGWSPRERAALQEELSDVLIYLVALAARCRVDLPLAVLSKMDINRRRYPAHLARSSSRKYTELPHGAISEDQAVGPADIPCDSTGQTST

[3] = biological target: Cyclin-dependent kinase 2 (Homo sapiens, UniProt P24941)
[4] = biological target: T3, Probable ATP-dependent RNA helicase DDX6 (Homo sapiens, UniProt P26196)
T3 sequence (P26196 whole entry): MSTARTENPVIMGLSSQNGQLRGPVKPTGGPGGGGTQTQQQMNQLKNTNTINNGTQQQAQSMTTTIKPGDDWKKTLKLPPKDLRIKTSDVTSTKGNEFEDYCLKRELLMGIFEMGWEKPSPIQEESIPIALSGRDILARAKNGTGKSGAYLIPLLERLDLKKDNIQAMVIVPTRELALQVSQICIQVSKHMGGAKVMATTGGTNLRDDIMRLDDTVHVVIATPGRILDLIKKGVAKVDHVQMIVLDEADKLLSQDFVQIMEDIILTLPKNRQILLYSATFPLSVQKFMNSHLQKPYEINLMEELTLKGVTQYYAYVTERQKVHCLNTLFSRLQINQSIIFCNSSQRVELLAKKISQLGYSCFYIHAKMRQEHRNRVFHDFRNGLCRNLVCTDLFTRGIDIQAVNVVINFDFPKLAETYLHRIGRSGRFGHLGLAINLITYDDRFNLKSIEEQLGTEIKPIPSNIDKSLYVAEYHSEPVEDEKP

Rab-like protein 3 = biological target: T4, Rab-like protein 3 (Homo sapiens, UniProt Q5HYI8)
T4 sequence (Q5HYI8 whole entry): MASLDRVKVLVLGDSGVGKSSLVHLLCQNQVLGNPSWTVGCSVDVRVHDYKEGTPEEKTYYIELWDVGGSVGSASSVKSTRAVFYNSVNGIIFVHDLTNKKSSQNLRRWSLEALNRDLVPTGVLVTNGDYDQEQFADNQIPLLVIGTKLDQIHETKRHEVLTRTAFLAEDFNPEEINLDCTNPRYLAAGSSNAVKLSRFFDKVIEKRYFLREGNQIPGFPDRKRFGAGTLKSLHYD

LIM domain kinase 1 = LIM domain kinase 1 (Homo sapiens, UniProt P53667)
[5] = biological target: Casein kinase I isoform epsilon (Homo sapiens, UniProt P49674)
[6] = biological target: T5, Ribosyldihydronicotinamide dehydrogenase [quinone] (Homo sapiens, UniProt P16083)
T5 sequence (P16083 whole entry): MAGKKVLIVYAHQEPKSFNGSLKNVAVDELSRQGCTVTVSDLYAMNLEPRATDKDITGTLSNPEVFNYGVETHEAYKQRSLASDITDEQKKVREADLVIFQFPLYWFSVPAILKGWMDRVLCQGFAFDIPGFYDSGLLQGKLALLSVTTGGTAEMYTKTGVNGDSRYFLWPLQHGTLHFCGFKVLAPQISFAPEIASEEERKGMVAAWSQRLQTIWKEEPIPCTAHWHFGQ

Myosin-14 = Myosin-14 (Homo sapiens, UniProt Q7Z406)
[7] = biological target: Casein kinase I isoform gamma-1 (Homo sapiens, UniProt Q9HCP0)
[8] = biological target: Serine/threonine-protein kinase MRCK gamma (Homo sapiens, UniProt Q6DT37)
Adenosine kinase = Adenosine kinase (Homo sapiens, UniProt P55263)
[9] = biological target: Putative heat shock protein HSP 90-beta 2 (Homo sapiens, UniProt Q58FF8)
[10] = biological target: Casein kinase I isoform alpha (Homo sapiens, UniProt P48729)
[11] = biological target: Protein-tyrosine kinase 6 (Homo sapiens, UniProt Q13882)
[12] = biological target: T6, Cytochrome c1, heme protein, mitochondrial (Homo sapiens, UniProt P08574)
T6 sequence (P08574 whole entry): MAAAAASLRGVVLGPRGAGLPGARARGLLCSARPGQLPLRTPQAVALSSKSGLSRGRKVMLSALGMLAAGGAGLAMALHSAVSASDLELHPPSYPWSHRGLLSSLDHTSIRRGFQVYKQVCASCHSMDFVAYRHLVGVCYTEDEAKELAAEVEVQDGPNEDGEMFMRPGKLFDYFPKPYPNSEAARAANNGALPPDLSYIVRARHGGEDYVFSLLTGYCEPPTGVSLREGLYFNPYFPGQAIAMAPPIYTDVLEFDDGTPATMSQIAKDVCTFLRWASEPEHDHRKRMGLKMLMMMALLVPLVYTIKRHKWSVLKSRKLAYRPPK

[13] = biological target: Ribosomal protein S6 kinase alpha-4 (Homo sapiens, UniProt O75676)
Note: in the data inactive means no Kd found up to 30 µM.

Serine/threonine-protein kinase MRCK gamma, sequence (Q6DT37 whole entry): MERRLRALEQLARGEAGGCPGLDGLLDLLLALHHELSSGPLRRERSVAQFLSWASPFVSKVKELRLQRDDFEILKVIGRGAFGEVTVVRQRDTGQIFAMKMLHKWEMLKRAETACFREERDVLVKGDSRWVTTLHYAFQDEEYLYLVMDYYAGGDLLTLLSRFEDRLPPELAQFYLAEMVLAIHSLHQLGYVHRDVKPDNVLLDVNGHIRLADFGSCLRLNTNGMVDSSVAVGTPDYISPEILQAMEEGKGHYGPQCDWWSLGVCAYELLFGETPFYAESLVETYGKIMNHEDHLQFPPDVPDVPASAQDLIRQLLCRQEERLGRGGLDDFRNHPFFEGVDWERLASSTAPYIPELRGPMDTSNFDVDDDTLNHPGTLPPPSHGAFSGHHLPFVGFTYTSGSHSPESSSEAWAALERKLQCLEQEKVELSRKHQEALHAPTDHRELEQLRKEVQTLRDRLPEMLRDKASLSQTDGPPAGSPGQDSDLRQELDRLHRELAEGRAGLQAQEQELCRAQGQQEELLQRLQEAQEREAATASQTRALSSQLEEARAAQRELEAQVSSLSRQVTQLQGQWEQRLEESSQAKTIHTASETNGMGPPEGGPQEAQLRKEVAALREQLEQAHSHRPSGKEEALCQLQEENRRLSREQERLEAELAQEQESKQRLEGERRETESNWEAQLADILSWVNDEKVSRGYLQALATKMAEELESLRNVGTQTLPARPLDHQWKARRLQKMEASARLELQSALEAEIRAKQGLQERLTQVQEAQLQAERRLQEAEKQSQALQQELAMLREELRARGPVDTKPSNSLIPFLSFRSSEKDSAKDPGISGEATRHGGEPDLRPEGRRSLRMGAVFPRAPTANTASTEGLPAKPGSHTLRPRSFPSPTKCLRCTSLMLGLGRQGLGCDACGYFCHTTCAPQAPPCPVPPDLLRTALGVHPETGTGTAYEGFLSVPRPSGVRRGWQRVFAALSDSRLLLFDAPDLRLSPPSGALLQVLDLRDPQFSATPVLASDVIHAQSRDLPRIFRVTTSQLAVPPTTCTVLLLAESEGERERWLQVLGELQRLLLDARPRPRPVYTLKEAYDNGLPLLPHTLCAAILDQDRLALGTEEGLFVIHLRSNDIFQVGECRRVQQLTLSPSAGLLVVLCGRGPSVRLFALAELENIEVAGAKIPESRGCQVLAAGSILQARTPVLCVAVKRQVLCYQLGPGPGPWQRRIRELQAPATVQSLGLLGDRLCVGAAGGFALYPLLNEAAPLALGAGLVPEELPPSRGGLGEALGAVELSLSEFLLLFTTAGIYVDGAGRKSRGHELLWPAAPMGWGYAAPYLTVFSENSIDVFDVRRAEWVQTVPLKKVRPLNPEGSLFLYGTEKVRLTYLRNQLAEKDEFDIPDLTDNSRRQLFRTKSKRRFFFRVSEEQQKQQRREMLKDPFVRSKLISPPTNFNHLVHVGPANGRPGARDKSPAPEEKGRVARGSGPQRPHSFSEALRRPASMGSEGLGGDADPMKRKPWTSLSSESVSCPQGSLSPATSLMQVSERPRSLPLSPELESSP
Casein kinase I isoform gamma-1, sequence (Q9HCP0 whole entry, canonical isoform): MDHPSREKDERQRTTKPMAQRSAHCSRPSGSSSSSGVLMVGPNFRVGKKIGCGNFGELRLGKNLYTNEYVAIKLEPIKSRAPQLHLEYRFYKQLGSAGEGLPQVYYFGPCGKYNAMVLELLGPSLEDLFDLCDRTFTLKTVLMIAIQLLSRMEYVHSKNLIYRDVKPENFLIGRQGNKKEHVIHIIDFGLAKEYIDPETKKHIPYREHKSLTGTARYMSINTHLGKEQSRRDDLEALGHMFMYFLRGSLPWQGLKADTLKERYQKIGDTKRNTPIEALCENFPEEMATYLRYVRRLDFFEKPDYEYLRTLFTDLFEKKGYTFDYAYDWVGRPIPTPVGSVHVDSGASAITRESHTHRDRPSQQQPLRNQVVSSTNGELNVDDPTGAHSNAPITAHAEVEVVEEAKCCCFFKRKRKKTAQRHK
Myosin-14, sequence (Q7Z406 whole entry, canonical isoform): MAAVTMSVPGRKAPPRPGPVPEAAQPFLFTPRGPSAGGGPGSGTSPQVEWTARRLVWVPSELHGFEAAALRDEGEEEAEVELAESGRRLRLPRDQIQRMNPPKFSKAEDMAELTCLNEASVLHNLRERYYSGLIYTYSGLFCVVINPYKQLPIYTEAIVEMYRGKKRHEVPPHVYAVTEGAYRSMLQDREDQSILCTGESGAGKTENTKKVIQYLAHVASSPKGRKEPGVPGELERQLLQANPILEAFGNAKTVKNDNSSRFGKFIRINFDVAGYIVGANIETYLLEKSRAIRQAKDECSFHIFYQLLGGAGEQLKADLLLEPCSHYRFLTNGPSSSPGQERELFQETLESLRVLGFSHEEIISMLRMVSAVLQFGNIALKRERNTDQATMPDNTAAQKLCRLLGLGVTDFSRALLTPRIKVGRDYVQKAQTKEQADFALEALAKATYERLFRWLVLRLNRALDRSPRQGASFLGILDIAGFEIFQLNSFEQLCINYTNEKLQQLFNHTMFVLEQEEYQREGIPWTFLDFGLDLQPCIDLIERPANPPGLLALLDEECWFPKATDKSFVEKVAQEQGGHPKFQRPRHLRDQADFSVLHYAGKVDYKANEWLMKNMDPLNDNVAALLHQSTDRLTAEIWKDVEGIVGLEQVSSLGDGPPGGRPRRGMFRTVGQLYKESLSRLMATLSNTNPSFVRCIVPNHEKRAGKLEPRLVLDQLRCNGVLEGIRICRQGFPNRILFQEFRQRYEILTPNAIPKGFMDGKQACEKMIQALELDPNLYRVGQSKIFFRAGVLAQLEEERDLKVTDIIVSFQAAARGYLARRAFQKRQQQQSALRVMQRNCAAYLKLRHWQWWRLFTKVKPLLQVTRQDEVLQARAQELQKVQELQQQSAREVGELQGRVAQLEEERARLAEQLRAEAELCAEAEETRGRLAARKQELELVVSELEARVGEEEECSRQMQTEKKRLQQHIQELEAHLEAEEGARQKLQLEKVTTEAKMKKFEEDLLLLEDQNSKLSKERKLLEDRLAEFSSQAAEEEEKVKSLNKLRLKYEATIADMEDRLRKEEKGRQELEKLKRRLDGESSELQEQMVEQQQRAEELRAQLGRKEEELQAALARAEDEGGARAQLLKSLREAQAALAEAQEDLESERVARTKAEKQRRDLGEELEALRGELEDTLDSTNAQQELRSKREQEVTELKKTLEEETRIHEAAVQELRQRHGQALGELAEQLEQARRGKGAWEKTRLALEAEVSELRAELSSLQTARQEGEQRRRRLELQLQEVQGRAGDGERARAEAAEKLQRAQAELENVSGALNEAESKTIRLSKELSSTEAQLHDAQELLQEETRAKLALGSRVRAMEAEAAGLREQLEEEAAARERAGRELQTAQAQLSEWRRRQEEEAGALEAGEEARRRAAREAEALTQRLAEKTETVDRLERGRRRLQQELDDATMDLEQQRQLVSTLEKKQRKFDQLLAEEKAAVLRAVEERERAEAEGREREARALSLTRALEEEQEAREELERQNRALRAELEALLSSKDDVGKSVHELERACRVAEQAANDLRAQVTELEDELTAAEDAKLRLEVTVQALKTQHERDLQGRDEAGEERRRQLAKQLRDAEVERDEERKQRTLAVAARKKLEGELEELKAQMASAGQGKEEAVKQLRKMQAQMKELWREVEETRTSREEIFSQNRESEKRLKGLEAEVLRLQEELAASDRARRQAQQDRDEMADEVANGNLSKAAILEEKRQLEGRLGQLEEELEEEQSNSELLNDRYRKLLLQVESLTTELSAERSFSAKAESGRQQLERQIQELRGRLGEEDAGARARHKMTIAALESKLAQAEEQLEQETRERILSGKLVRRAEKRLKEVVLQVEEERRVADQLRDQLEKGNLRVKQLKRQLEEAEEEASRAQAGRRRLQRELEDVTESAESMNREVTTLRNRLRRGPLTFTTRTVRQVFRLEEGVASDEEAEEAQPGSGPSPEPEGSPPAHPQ
Putative heat shock protein HSP 90-beta 2, sequence (Q58FF8 whole entry, canonical isoform): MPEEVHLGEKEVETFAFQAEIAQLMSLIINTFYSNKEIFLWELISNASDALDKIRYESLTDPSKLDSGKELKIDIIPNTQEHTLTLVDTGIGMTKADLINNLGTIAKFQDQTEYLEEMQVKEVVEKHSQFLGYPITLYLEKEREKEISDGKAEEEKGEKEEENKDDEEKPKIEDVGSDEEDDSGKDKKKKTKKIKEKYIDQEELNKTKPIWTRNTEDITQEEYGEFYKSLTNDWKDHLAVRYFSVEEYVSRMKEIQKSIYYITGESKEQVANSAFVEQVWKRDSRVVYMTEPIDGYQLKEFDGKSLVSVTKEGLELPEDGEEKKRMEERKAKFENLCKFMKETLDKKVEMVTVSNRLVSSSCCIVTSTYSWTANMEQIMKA
Cyclin-dependent kinase 6, sequence (Q00534 whole entry): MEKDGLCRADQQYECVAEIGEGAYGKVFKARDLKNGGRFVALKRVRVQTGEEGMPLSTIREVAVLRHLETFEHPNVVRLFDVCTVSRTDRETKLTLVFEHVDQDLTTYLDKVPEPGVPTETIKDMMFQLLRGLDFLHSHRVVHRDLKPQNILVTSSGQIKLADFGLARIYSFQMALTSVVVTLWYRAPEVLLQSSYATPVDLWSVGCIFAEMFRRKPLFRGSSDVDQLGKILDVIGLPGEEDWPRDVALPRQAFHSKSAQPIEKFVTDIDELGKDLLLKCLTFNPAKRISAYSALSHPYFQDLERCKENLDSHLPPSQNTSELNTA
Casein kinase I isoform alpha, sequence (P48729 whole entry, canonical isoform): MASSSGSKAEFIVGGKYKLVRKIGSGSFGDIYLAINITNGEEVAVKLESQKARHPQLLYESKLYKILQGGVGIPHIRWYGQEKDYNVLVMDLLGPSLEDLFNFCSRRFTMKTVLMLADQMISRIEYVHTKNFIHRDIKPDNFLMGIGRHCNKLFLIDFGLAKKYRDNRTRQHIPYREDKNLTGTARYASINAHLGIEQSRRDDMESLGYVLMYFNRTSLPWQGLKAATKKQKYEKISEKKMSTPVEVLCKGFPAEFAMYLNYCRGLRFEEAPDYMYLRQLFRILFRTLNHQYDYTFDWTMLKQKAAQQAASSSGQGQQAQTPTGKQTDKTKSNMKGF

Kd [1]	Kd [2]	Kd (dCTP pyrophosphatase 1)	Kd [3]	Kd [4]	Kd (Rab-like protein 3)	Kd (LIM domain kinase 1)	Kd [5]	Kd [6]	Kd (Myosin-14)	Kd [7]	Kd [8]	Kd (Adenosine kinase)	Kd [9]	Kd [10]	Kd [11]	Kd [12]	Kd [13]	Structure (SMILES)
> 30 µM (inactive)	> 30 µM (inactive)	> 30 µM (inactive)	> 30 µM (inactive)	> 30 µM (inactive)	> 30 µM (inactive)	> 30 µM (inactive)	> 30 µM (inactive)	> 30 µM (inactive)	> 30 µM (inactive)	> 30 µM (inactive)	> 30 µM (inactive)	> 30 µM (inactive)	> 30 µM (inactive)	> 30 µM (inactive)	> 30 µM (inactive)	> 30 µM (inactive)	> 30 µM (inactive)	CC(C)(O)CC(=O)NCCn1ccc2ncnc(Nc3ccc(Oc4cccc(C(F)(F)F)c4)c(Cl)c3)c21 [TAK-285]
> 30 µM (inactive)	> 30 µM (inactive)	> 30 µM (inactive)	> 30 µM (inactive)	> 30 µM (inactive)	> 30 µM (inactive)	> 30 µM (inactive)	> 30 µM (inactive)	> 30 µM (inactive)	> 30 µM (inactive)	> 30 µM (inactive)	> 30 µM (inactive)	> 30 µM (inactive)	> 30 µM (inactive)	> 30 µM (inactive)	> 30 µM (inactive)	> 30 µM (inactive)	> 30 µM (inactive)	CNC(=O)c1cccc(-c2ccc3c(N4CCOC[C@@H]4C)nc(N4CCOC[C@@H]4C)nc3n2)c1 [VISTUSERTIB]
> 30 µM (inactive)	> 30 µM (inactive)	> 30 µM (inactive)	> 30 µM (inactive)	> 30 µM (inactive)	> 30 µM (inactive)	> 30 µM (inactive)	> 30 µM (inactive)	> 30 µM (inactive)	> 30 µM (inactive)	> 30 µM (inactive)	> 30 µM (inactive)	> 30 µM (inactive)	> 30 µM (inactive)	> 30 µM (inactive)	> 30 µM (inactive)	> 30 µM (inactive)	> 30 µM (inactive)	COc1cc2ncnc3c2cc1OCCCCCN(C)Cc1ccc(Br)cc1N3 [JNJ-26483327]
> 30 µM (inactive)	> 30 µM (inactive)	> 30 µM (inactive)	> 30 µM (inactive)	> 30 µM (inactive)	> 30 µM (inactive)	> 30 µM (inactive)	> 30 µM (inactive)	> 30 µM (inactive)	> 30 µM (inactive)	> 30 µM (inactive)	> 30 µM (inactive)	> 30 µM (inactive)	> 30 µM (inactive)	> 30 µM (inactive)	1.76 µM (active)	> 30 µM (inactive)	> 30 µM (inactive)	COc1cc2nccc(Oc3ccc(NC(=O)C4(C(=O)Nc5ccc(F)cc5)CC4)cc3)c2cc1OC [CABOZANTINIB]
> 30 µM (inactive)	> 30 µM (inactive)	> 30 µM (inactive)	> 30 µM (inactive)	> 30 µM (inactive)	> 30 µM (inactive)	> 30 µM (inactive)	> 30 µM (inactive)	> 30 µM (inactive)	> 30 µM (inactive)	> 30 µM (inactive)	> 30 µM (inactive)	> 30 µM (inactive)	> 30 µM (inactive)	> 30 µM (inactive)	> 30 µM (inactive)	> 30 µM (inactive)	> 30 µM (inactive)	Cc1cc(-c2cc(OC(=O)c3ccccc3)ccc2Cl)cc2nnc(Nc3ccc(OCCN4CCCC4)cc3)nc12 [TG100-801]
> 30 µM (inactive)	> 30 µM (inactive)	> 30 µM (inactive)	> 30 µM (inactive)	> 30 µM (inactive)	> 30 µM (inactive)	> 30 µM (inactive)	> 30 µM (inactive)	1.39 µM (active)	> 30 µM (inactive)	> 30 µM (inactive)	> 30 µM (inactive)	> 30 µM (inactive)	> 30 µM (inactive)	> 30 µM (inactive)	> 30 µM (inactive)	> 30 µM (inactive)	> 30 µM (inactive)	COc1cccc2cc(-c3nc([C@H]4CC[C@H](C(=O)O)CC4)n4ncnc(N)c34)[nH]c12 [OSI-027]

Structure (SMILES)	Kd [1]	Kd [2]	Kd (dCTP pyrophosphatase 1)	Kd [3]	Kd [4]	Kd (Rab-like protein 3)	Kd (LIM domain kinase 1)	Kd [5]	Kd [6]	Kd (Myosin-14)	Kd [7]	Kd [8]	Kd (Adenosine kinase)	Kd [9]	Kd [10]	Kd [11]	Kd [12]	Kd [13]
Cn1cc(-c2[nH]c3cc(NC(=O)[C@H](N)C4CCCCC4)cc4c3c2C=NNC4=O)cn1	> 30 µM (inactive)	> 30 µM (inactive)	> 30 µM (inactive)	> 30 µM (inactive)	> 30 µM (inactive)	> 30 µM (inactive)	0.133 µM (active)	> 30 µM (inactive)	> 30 µM (inactive)	> 30 µM (inactive)	> 30 µM (inactive)	> 30 µM (inactive)	> 30 µM (inactive)	> 30 µM (inactive)	> 30 µM (inactive)	> 30 µM (inactive)	> 30 µM (inactive)	1.05 µM (active)
CN1CCN(c2nc(C3=C(c4c[nH]c5ccccc45)C(=O)NC3=O)c3ccccc3n2)CC1 [SOTRASTAURIN]	> 30 µM (inactive)	> 30 µM (inactive)	> 30 µM (inactive)	> 30 µM (inactive)	> 30 µM (inactive)	> 30 µM (inactive)	> 30 µM (inactive)	> 30 µM (inactive)	> 30 µM (inactive)	> 30 µM (inactive)	> 30 µM (inactive)	> 30 µM (inactive)	> 30 µM (inactive)	> 30 µM (inactive)	> 30 µM (inactive)	> 30 µM (inactive)	> 30 µM (inactive)	> 30 µM (inactive)
